# Patent US20250380696A1, “METHOD FOR CONTROLLING UNDESIRED PLANTS AND PROMOTING GROWTH OF USEFUL PLANTS” (ISHIHARA SANGYO KAISHA, LTD., priority 2022, published 2025)
# Tests used:
# Type in all cases: in vivo
# [1] = test system: Italian ryegrass (Lolium multiflorum); test: (8) Herbicidal effect test, pot, spray at 3.0 to 3.1 leaf stage; details: 4th day after spraying
# Excerpt: (§1) [formula] • X: growth inhibition rate when treated with α (g/ha) of compound A, • Y: growth inhibition rate when treated with β (g/ha) of compound B, • E: growth inhibition rate expected when treated with α (g/ha) of compound A and β (g/ha) of compound B (expected value).
# (§2) Upland soil was put in a 1/1,000,000 hectare pot, and seeds of Italian ryegrass (Lolium multiflorum) were sown. When Italian ryegrass reached 3.0 to 3.1 leaf stage, a water-based suspension containing tiafenacil as the active ingredient, prepared by a conventional method for preparing a water-based suspension, and an emulsifiable concentrate containing S-metolachlor as the active ingredient (tradename: Dual Gold, manufactured by Syngenta), a wettable powder containing metribuzin as the active ingredient (tradename: SENCOR wettable powder, manufactured by Bayer Crop Science) or water dispersible granules containing pyroxasulfone as the active ingredient (tradename: Sakura, manufactured by Bayer Crop Science) were diluted with water (in an amount corresponding to 200 liter per hectare) containing 0.5 vol % of an agricultural spreader (tradename: Destiny HC, manufactured by Winfield Solutions, LLC.) and sprayed by a small spray gun (model: W-101-132G, manufactured by ANEST IWATA Corporation). On the 4th day after spraying, the state of growth of the Italian ryegrass was visually observed, and the growth inhibition rate (%) was obtained in accordance with the evaluation standards described in the above (1) herbicidal effect test, and the results are shown in Table 8. Further, the expected value of the growth inhibition rate (%) was calculated in accordance with the Colby's formula described in the above (1) herbicidal effect test, and the results are also shown in Table 8.
# [2] = test system: Italian ryegrass (Lolium multiflorum); test: (9) Herbicidal effect test, pot, spray at 3.2 to 4.0 leaf stage; details: 6th day after spraying
# Excerpt: as §1
# Upland soil was put in a 1/1,000,000 hectare pot, and seeds of Italian ryegrass (Lolium multiflorum) were sown. When Italian ryegrass reached 3.2 to 4.0 leaf stage, a water-based suspension containing tiafenacil as the active ingredient, prepared by a conventional method for preparing a water-based suspension, and a wettable powder containing tri-allate as the active ingredient, prepared by a conventional method for preparing a wettable powder, an emulsifiable concentrate containing pethoxamid as the active ingredient (tradename: Successor 600, manufactured by Stähler Suisse SA) or an emulsifiable concentrate containing dimethenamid-P as the active ingredient (tradename: Fieldstar P emulsifiable concentrate, manufactured by BASF) were diluted with water (in an amount corresponding to 200 liter per hectare) containing 0.5 vol % of an agricultural spreader (tradename: Destiny HC, manufactured by Winfield Solutions, LLC.) and sprayed by a small spray gun (model: W-101-132G, manufactured by ANEST IWATA Corporation). On the 6th day after spraying, the state of growth of the Italian ryegrass was visually observed, and the growth inhibition rate (%) was obtained in accordance with the evaluation standards described in the above (1) herbicidal effect test, and the results are shown in Table 9. Further, the expected value of the growth inhibition rate (%) was calculated in accordance with the Colby's formula described in the above (1) herbicidal effect test, and the results are also shown in Table 9.
# [3] = test system: Italian ryegrass (Lolium multiflorum); test: (16) Herbicidal effect test (comparative test), pot, spray at 2.5 to 3.0 leaf stage; details: 4th day after spraying
# Excerpt: as §1
# as §2, with “reached 2.5 to” for “reached”, “3.0” for “3.0 to 3.1”, “suspension, a water-based suspension containing saflufenacil as the active ingredient (tradename: Sharpen, manufactured by BASF), a wettable powder containing fomesafen as the active ingredient, prepared by a conventional method for preparing a wettable powder, an emulsifiable concentrate containing fluthiacet-methyl as the active ingredient (tradename: Attackshot emulsifiable concentrate, manufactured by MARUWA Biochemical Co., Ltd.), a dry flowable containing carfentrazone-ethyl as the active ingredient (tradename: Task DF, manufactured by ISHIHARA SANGYO KAISHA, LTD.) or a water-based suspension containing pyraflufen-ethyl as the active ingredient (tradename: ECOPART flowable, manufactured by NIHON NOHYAKU CO., LTD.),” for “suspension,”, “Syngenta) or” for “Syngenta),”, “Science),” for “Science) or water dispersible granules containing pyroxasulfone as the active ingredient (tradename: Sakura, manufactured by Bayer Crop Science)”, “16.” for “8.”
# [4] = test system: forage corn (cultivar: SNOW DENT OTOHA); test: (18) Plant growth promotion effect test (corn), Italian ryegrass sown; details: 21st day after the sowing, above-ground part
# Excerpt: Upland soil was put in a 1/1,000,000 hectare pot, and seeds of Italian ryegrass (Lolium multiflorum) were sown. When the Italian ryegrass reached 2.7 to 3.1 leaf stage, a water-based suspension containing tiafenacil as the active ingredient, prepared by a conventional method for preparing a water-based suspension, and an emulsifiable concentrate containing S-metolachlor as the active ingredient (tradename: Dual Gold, manufactured by Syngenta), a wettable powder containing metribuzin as the active ingredient (tradename: SENCOR wettable powder, manufactured by Bayer Crop Science) or water dispersible granules containing pyroxasulfone as the active ingredient (tradename: Sakura, manufactured by Bayer Crop Science) were diluted with water (in an amount corresponding to 200 liter per hectare) containing 0.5 vol % of an agricultural spreader (tradename: Destiny HC, manufactured by Winfield Solutions, LLC.) and sprayed by a small spray gun (model: W-101-132G, manufactured by ANEST IWATA Corporation). Seeds of forage corn (cultivar: SNOW DENT OTOHA, manufactured by SNOW BRAND SEED Co., Ltd.) were sown in the pot after spraying. On the 21st day after the sowing, the above-ground part of the forage corn was reaped, and its weight was measured to obtain the raw weight.
smiles,measurement,setting,value
COC(=O)CCNC(=O)C(C)Sc1cc(-n2c(=O)cc(C(F)(F)F)n(C)c2=O)c(F)cc1Cl (stereo not shown) [tiafenacil],Growth inhibition rate (%) Measured value,[1]; Dose 6.25 g/ha,20%
same,Growth inhibition rate (%) Measured value,[2]; Dose 6.25 g/ha,30%
same,Growth inhibition rate (%) Measured value,[3]; Dose 12.5 g/ha,38%
same,Raw weight (g) of forage corn,[4]; Dose 6.25 g/ha,3.2 g
CCOCCN(C(=O)CCl)C(=C(C)C)c1ccccc1 [pethoxamid],Growth inhibition rate (%) Measured value,[2]; Dose 312.5 g/ha,5%
same,Growth inhibition rate (%) Measured value,[2]; Dose 437.5 g/ha,3%
same,Growth inhibition rate (%) Measured value,[2]; Dose 625 g/ha,8%
COC[C@H](C)N(C(=O)CCl)c1c(C)csc1C [dimethenamid-P],Growth inhibition rate (%) Measured value,[2]; Dose 500 g/ha,33%
same,Growth inhibition rate (%) Measured value,[2]; Dose 625 g/ha,40%
CSc1nnc(C(C)(C)C)c(=O)n1N [metribuzin],inhibition at 125 g/ha,"[1]; Lolium multiflorum, Dose 125 g/ha, read-out: Growth inhibition rate (%) Measured value",3%
same,inhibition at 438 g/ha,"[1]; Lolium multiflorum, Dose 438 g/ha, read-out: Growth inhibition rate (%) Measured value",10%
same,inhibition at 750 g/ha,"[1]; Lolium multiflorum, Dose 750 g/ha, read-out: Growth inhibition rate (%) Measured value",20%
same,inhibition at 938 g/ha,"[1]; Lolium multiflorum, Dose 938 g/ha, read-out: Growth inhibition rate (%) Measured value",33%
same,inhibition at 18.75 g/ha,"[3]; Lolium multiflorum, Dose 18.75 g/ha, read-out: Growth inhibition rate (%) Measured value",7%
same,Raw weight (g) of forage corn,[4]; Dose 225 g/ha,4.7 g
same,Raw weight (g) of forage corn,[4]; Dose 550 g/ha,5.6 g
CCc1cccc(C)c1N(C(=O)CCl)[C@@H](C)COC [S-metolachlor],Growth inhibition rate (%) Measured value,[1]; Dose 281 g/ha,7%
same,Growth inhibition rate (%) Measured value,[1]; Dose 500 g/ha,10%
same,Growth inhibition rate (%) Measured value,[1]; Dose 625 g/ha,13%
same,Growth inhibition rate (%) Measured value,[3]; Dose 750 g/ha,3%
same,Raw weight (g) of forage corn,[4]; Dose 7.5 g/ha,3.5 g
same,Raw weight (g) of forage corn,[4]; Dose 750 g/ha,3.1 g
Cn1nc(C(F)(F)F)c(CS(=O)(=O)C2=NOC(C)(C)C2)c1OC(F)F [pyroxasulfone],inhibition at 188 g/ha,"[1]; Lolium multiflorum, Dose 188 g/ha, read-out: Growth inhibition rate (%) Measured value",10%
same,inhibition at 375 g/ha,"[1]; Lolium multiflorum, Dose 375 g/ha, read-out: Growth inhibition rate (%) Measured value",20%
same,Raw weight (g) of forage corn,[4]; Dose 7.5 g/ha,5.8 g
same,Raw weight (g) of forage corn,[4]; Dose 125 g/ha,3.3 g
same,Raw weight (g) of forage corn,[4]; Dose 250 g/ha,3.8 g
CC(C)N(C(=O)SCC(Cl)=C(Cl)Cl)C(C)C [tri-allate],inhibition at 937.5 g/ha,"[2]; Lolium multiflorum, Dose 937.5 g/ha, read-out: Growth inhibition rate (%) Measured value",3%
